According to ChEMBL document CHEMBL3352151, “In vitro and in vivo antibacterial evaluation and mechanistic study of ornithine based small cationic lipopeptides against antibiotic resistant clinical isolates” (Eur J Med Chem, 2014):
Values after ≈ are worked out from the molar mass of the structure shown. Active and inactive are the calls of the source. The calls are words filed in the database; no cut-off is given here.

What was measured:
[1] = test system: Klebsiella pneumoniae; assay: Antibacterial activity against clinical isolates of Klebsiella pneumoniae GMCH/B0127 after overnight incubation by microdilution broth assay; assay type: functional
[2] = Membrane permeabilization activity assessed as release of calcein from liposomes at 1:10 lipopeptide:lipid molar ratio after 5 mins by fluorescence assay
[3] = Toxicity in albino mouse assessed as mortality at 1 mg/kg, iv; assay type: organism-based; design: dose 1 mg/kg, route intravenous; conditions: in vivo
[4] = test system: Escherichia coli; assay: Antibacterial activity against Escherichia coli PGI/DML02292 infected in Swiss albino mouse assessed as log reduction at 1 mg/kg administered twice at 1 hr and 5 hrs post infection relative to control; assay type: functional
[5] = test system: Mus musculus; assay: Toxicity in albino mouse assessed as mortality latency at 90 mg/kg, iv; assay type: organism-based; design: dose 90 mg/kg, route intravenous; conditions: in vivo
[6] = test system: Staphylococcus epidermidis; assay: Antibacterial activity against clinical isolates of Staphylococcus epidermidis GMCH/B0057 after overnight incubation by microdilution broth assay; assay type: functional
[7] = test system: Escherichia coli; assay: Antibacterial activity against Escherichia coli PGI/DML02292 infected in Swiss albino mouse assessed as log reduction at 10 mg/kg administered at 1 hr post infection relative to control; assay type: functional
[8] = test system: Mus musculus; assay: Toxicity in albino mouse assessed as mortality latency at 120 mg/kg, iv; assay type: organism-based; design: dose 120 mg/kg, route intravenous; conditions: in vivo
[9] = Toxicity in albino mouse assessed as mortality at 45 mg/kg, iv; assay type: organism-based; design: dose 45 mg/kg, route intravenous; conditions: in vivo
[10] = test system: Staphylococcus aureus; assay: Antibacterial activity against clinical isolates of methicillin-resistant Staphylococcus aureus PGI/DML03149 after overnight incubation by microdilution broth assay; assay type: functional
[11] = Toxicity in albino mouse assessed as mortality at 60 mg/kg, iv; assay type: organism-based; design: dose 60 mg/kg, route intravenous; conditions: in vivo
[12] = test system: Escherichia coli; assay: Induction of membrane damage in Escherichia coli PGI/DML02292 at 9 ug/ml after 30 mins by propidium iodide staining-based flow cytometry relative to control; assay type: functional
[13] = Toxicity in albino mouse assessed as mortality at 120 mg/kg, iv; assay type: organism-based; design: dose 120 mg/kg, route intravenous; conditions: in vivo
[14] = test system: Mus musculus; assay: Toxicity in albino mouse assessed as anorexia at 45 to 150 mg/kg, iv measured for 14 days; assay type: organism-based; design: dose 45-150 mg/kg, route intravenous; conditions: in vivo, 336 h
[15] = test system: Staphylococcus aureus; assay: Antibacterial activity against Staphylococcus aureus PGI/DML03149 infected in Swiss albino mouse assessed as log reduction at 1 mg/kg administered twice at 1 hr and 5 hrs post infection relative to control; assay type: functional
[16] = test system: Escherichia coli; assay: Induction of membrane damage in Escherichia coli PGI/DML02292 at 3 ug/ml after 30 mins by propidium iodide staining-based flow cytometry relative to control; assay type: functional
[17] = Cytotoxicity against human HaCaT cells assessed as cell viability at 100 ug/ml after 18 hrs by MTT assay; assay type: cell-based; conditions: read-out: Activity
[18] = test system: Escherichia coli; assay: Antibacterial activity against clinical isolates of imipenem-resistant Escherichia coli PGI/DML02292 after overnight incubation by microdilution broth assay; assay type: functional
[19] = Membrane permeabilization activity assessed as release of calcein from liposomes at 1:50 lipopeptide:lipid molar ratio after 5 mins by fluorescence assay
[20] = test system: Staphylococcus aureus; assay: Antibacterial activity against Staphylococcus aureus PGI/DML03149 infected in Swiss albino mouse assessed as log reduction at 10 mg/kg administered […] at 1 hr post infection relative to control; assay type: functional
[21] = Toxicity in albino mouse assessed as mortality at 75 mg/kg, iv; assay type: organism-based; design: dose 75 mg/kg, route intravenous; conditions: in vivo
[22] = test system: Staphylococcus epidermidis; assay: Antibacterial activity against clinical isolates of ampicillin-resistant Staphylococcus epidermidis GMCH/R-Amp008 after overnight incubation by microdilution broth assay; assay type: functional
[23] = Toxicity in albino mouse assessed as mortality at 150 mg/kg, iv; assay type: organism-based; design: dose 150 mg/kg, route intravenous; conditions: in vivo
[24] = test system: Escherichia coli; assay: Antibacterial activity against Escherichia coli PGI/DML02292 infected in Swiss albino mouse assessed as log reduction at 5 mg/kg administered twice at 1 hr and 5 hrs post infection relative to control; assay type: functional
[25] = test system: Staphylococcus aureus; assay: Antibacterial activity against clinical isolates of Staphylococcus aureus PGI/DML03054 after overnight incubation by microdilution broth assay; assay type: functional
[26] = test system: Streptococcus pneumoniae; assay: Antibacterial activity against clinical isolates of Streptococcus pneumoniae PGI/DML02468 after overnight incubation by microdilution broth assay; assay type: functional
[27] = test system: Escherichia coli; assay: Antibacterial activity against Escherichia coli PGI/DML02292 infected in Swiss albino mouse assessed as log reduction at 5 mg/kg administered at 1 hr post infection relative to control; assay type: functional
[28] = Toxicity in albino mouse assessed as mortality at 30 mg/kg, iv; assay type: organism-based; design: dose 30 mg/kg, route intravenous; conditions: in vivo
[29] = test system: Escherichia coli; assay: Antibacterial activity against Escherichia coli PGI/DML02292 infected in Swiss albino mouse assessed as log reduction at 3 mg/kg administered twice at 1 hr and 5 hrs post infection relative to control; assay type: functional
[30] = test system: Enterococcus faecalis; assay: Antibacterial activity against clinical isolates of Enterococcus faecalis GMCH/B0091 after overnight incubation by microdilution broth assay; assay type: functional
[31] = test system: Pseudomonas aeruginosa; assay: Antibacterial activity against clinical isolates of Pseudomonas aeruginosa PGI/DML02084 after overnight incubation by microdilution broth assay; assay type: functional
[32] = test system: Streptococcus pneumoniae; assay: Antibacterial activity against clinical isolates of erythromycin-resistant Streptococcus pneumoniae PGI/DML02213 after overnight incubation by microdilution broth assay; assay type: functional
[33] = Toxicity in albino mouse assessed as mortality at 15 mg/kg, iv; assay type: organism-based; design: dose 15 mg/kg, route intravenous; conditions: in vivo
[34] = test system: Enterococcus faecium; assay: Antibacterial activity against clinical isolates of penicillin-resistant Enterococcus faecium GMCH/R-Pen003 after overnight incubation by microdilution broth assay; assay type: functional
[35] = test system: Mus musculus; assay: Toxicity in albino mouse assessed as mortality latency at 45 mg/kg, iv; assay type: organism-based; design: dose 45 mg/kg, route intravenous; conditions: in vivo
[36] = test system: Haemophilus influenzae; assay: Antibacterial activity against clinical isolates of ciprofloxacin-resistant Haemophilus influenzae PGI/DML01744 after overnight incubation by microdilution broth assay; assay type: functional
[37] = test system: Escherichia coli; assay: Bactericidal activity against clinical isolates of Escherichia coli PGI/DML02292 assessed as disruption of cell structure at 4 times MIC after 30 mins by transmission electron microscopy relative to control; assay type: functional, organism-based
[38] = test system: Escherichia coli; assay: Binding affinity to Escherichia coli PGI/DML02292 DNA at 12 ug/ml after 1 hr by agarose gel electrophoresis
[39] = (§1) Toxicity in iv dosed albino mouse; assay type: organism-based; conditions: in vivo
[40] = test system: Mus musculus; assay: as §1; assay type: organism-based; conditions: in vivo
[41] = test system: Enterococcus faecium; assay: Antibacterial activity against clinical isolates of Enterococcus faecium GMCH/B0102 after overnight incubation by microdilution broth assay; assay type: functional
[42] = test system: Pseudomonas aeruginosa; assay: Antibacterial activity against clinical isolates of streptomycin-resistant Pseudomonas aeruginosa PGI/DML01991 after overnight incubation by microdilution broth assay; assay type: functional
[43] = test system: Staphylococcus aureus; assay: Antibacterial activity against Staphylococcus aureus PGI/DML03149 infected in Swiss albino mouse assessed as log reduction at 5 mg/kg administered […] at 1 hr post infection relative to control; assay type: functional
[44] = test system: Mus musculus; assay: Toxicity in albino mouse assessed as death at 1 to 30 mg/kg, iv measured for 14 days; assay type: organism-based; design: dose 1-30 mg/kg, route intravenous; conditions: in vivo, 336 h
[45] = Membrane permeabilization activity assessed as release of calcein from liposomes after 5 mins by fluorescence assay
[46] = Cytotoxicity against human HaCaT cells assessed as cell viability at 500 ug/ml after 18 hrs by MTT assay; assay type: cell-based; conditions: read-out: Activity
[47] = test system: Mus musculus; assay: Toxicity in albino mouse assessed as piloerection at 75 mg/kg, iv measured for 14 days; assay type: organism-based; design: dose 75 mg/kg, route intravenous; conditions: in vivo, 336 h

Work on CCCCCCCCCCCCCC(=O)NC(CCCN)C(=O)NC(CCCN)C(=O)NC(CCCN)C(N)=O (stereo not given) yielded an MIC [1] of 4 µg/mL (≈ 7.02 µM), an Activity [2] of 91% and a mortality [3] of 0%. It also gave an FC [4] of 1.08, a Time [5] greater than 96 h and an MIC [6] of 3.5 µg/mL (≈ 6.14 µM). It also gave an FC [7] of 5.41, a Time [8] greater than 48 h and a mortality [9] of 15%. It also gave an MIC [10] of 3.1 µg/mL (≈ 5.44 µM), a mortality [11] of 25% and an Activity [12] of 79%. For the same compound, the mortality [13] was 75%, the Activity [14] was “Toxic” and the FC [15] was 0.84. The Activity [16] was 14%, the viability at 18 h, 100 ug/ml [17] was 92% and the MIC [18] was 5.5 µg/mL (≈ 9.65 µM). The Activity [19] was 51%, the FC [20] was 4.59 and the mortality [21] was 40%. It also gave an MIC [22] of 3.1 µg/mL (≈ 5.44 µM), a mortality [23] of 85% and an FC [24] of 4.96. For the same compound, the MIC [25] was 2.5 µg/mL (≈ 4.39 µM), the MIC [26] was 4.5 µg/mL (≈ 7.9 µM) and the FC [27] was 3.68. For the same compound, the mortality [28] was 0%, the FC [29] was 3.83 and the MIC [30] was 1.5 µg/mL (≈ 2.63 µM). For the same compound, the MIC [31] was 1.5 µg/mL (≈ 2.63 µM), the MIC [32] was 4.2 µg/mL (≈ 7.37 µM) and the mortality [33] was 0%. For the same compound, the MIC [34] was 3.1 µg/mL (≈ 5.44 µM), the Time [35] was greater than 168 h and the MIC [36] was 3.1 µg/mL (≈ 5.44 µM). The Activity [37] was “Active”, the Activity [38] was “inactive” and the LD50 [39] was 81.3 mg/kg. It also gave an MTD [39] of 30 mg/kg, an NOAEL [39] of 30 mg/kg and an LOAEL [40] of 45 mg/kg. The MLD [40] was 45 mg/kg, the MIC [41] was 3.5 µg/mL (≈ 6.14 µM) and the MIC [42] was 2.25 µg/mL (≈ 3.95 µM). The FC [43] was 3.07, the Activity [44] was “Non-toxic” and the Activity [45] was “Dose-dependent effect”. The viability at 18 h, 500 ug/ml [46] was 25% and the Activity [47] was “Toxic”.
